Reference: publication PMC10683023, “Targeting Glial Cells by Organic Anion-Transporting Polypeptide 1C1 (OATP1C1)-Utilizing L-Thyroxine-Derived Prodrugs” (Journal of Medicinal Chemistry, 2023)

What was measured:
[1] = Enzymatic bioconversion in mouse liver S9 fraction; assay type: in vitro ADME; conditions: for Enzymatic stability, remaining percentage, mouse liver S9: after 5 h incubation, 100 μM prodrug; for Enzymatic stability, remaining percentage, mouse liver S9 / half-life at 100 µM: 37 °C, mean ± SD, n = 3; for Bioconversion rate in mouse liver S9 relative to the corresponding T4 derivative: DIT prodrug faster than T4 prodrug; for half-life at 100 µM: mouse, pH 7.4, liver S9 fraction, read-out: Enzymatic bioconversion half-life t1/2, mouse liver
Protocol: (§1) The rates of bioactivation of the prodrugs 1–8 in mouse and human liver S9 fractions, as well as in mouse primary astrocyte–microglia homogenate, were determined at +37 °C. The incubation mixtures were prepared by mixing liver S9 subcellular fraction or brain cell homogenate (final protein concentration 1.0 mg/mL) with isotonic Tris–HCl buffer (pH 7.4) and 10 mM prodrug stock solution in DMSO (the initial concentration of prodrugs was 100 μM and the DMSO concentration was […]). The mixture was incubated for 5 h, and the samples ([…]) were withdrawn at appropriate intervals. The enzymatic reaction was terminated by the addition of ice-cold acetonitrile ([…]), and the samples were centrifuged for 5 min at 12 000 rpm at room temperature and kept on ice until the supernatants were analyzed by the HPLC method described below. In blank reactions, the S9 fractions were replaced with the same volume of buffer. The pseudo-first-order half-lives (t1/2) for the rates of bioconversion of the prodrugs were calculated from the slope of the linear portion of the plotted logarithm of the remaining prodrug concentration versus time. The rates of bioactivation of prodrugs 1–8 in human plasma and mouse serum were determined at 37 °C as above by adding 10 mM stock solution of the prodrug to plasma/serum in a ratio of 1:10 and analyzed similarly to the samples from S9 fractions.
(§2) The amount of prodrug 1–8 was determined by the HPLC system, which consisted of an Agilent 1100 binary pump (Agilent Technologies Inc., Wilmington, DE), an 1100 micro vacuum degasser, an HP 1050 Autosampler, and an HP 1050 variable wavelength detector, operated at 230–240 nm. The chromatographic separations were achieved on an Agilent Zorbax SB-C18 analytical column (4.4 mm × 150 mm, 5 μm) (Agilent Technologies Inc., Wilmington, DE) by using isocratic elution of water containing 0.1% formic acid (pH ca. 3.0) and acetonitrile containing 0.1% formic acid with ratios of 50:50, 30:70, 40:60, 50:50, 50:50, 40:60, 40:60, and 30:70 (v/v), respectively, for prodrug 1–8. […] The lower limit of quantification for prodrugs 1–8 was 0.20 μM. These HPLC methods were also accurate, precise, and selective over the range of 0.5–20 μM.

[2] = Enzymatic bioconversion in human liver S9 fraction; assay type: in vitro ADME; conditions: for Enzymatic stability, remaining percentage, human liver S9: after 5 h incubation, 100 μM prodrug
Protocol: as §1, §2

[3] = Enzymatic bioconversion in mouse serum; assay type: in vitro ADME; conditions: for Enzymatic stability, remaining percentage, mouse serum: after 5 h incubation
Protocol: as §1, §2

[4] = Enzymatic bioconversion in mouse primary astrocyte–microglia homogenate; assay type: in vitro ADME; conditions: after 5 h incubation, 100 μM prodrug, 37 °C, mean ± SD, n = 3
Protocol: as §1, §2

OATP1C1 = target: T1, OATP1C1 (Homo sapiens, UniProt Q9NYB5); experiment: Competitive uptake into U-87MG cells in the presence of OATP1C1 inhibitors diclofenac and flufenamic acid; assay type: cell-based; conditions: 100 μM prodrug; for Reduction of cellular uptake by DCF: 100 μM diclofenac; for Cellular uptake in the presence of OATP1C1 inhibitors (DCF and FFA): 100 μM inhibitor, result in words
T1 construct: human U-87MG cells that expressed OATP1C1, but not other OATPs; endogenous in cells; host or cells: U-87MG human glioma cells
T1 sequence (Q9NYB5 1-712): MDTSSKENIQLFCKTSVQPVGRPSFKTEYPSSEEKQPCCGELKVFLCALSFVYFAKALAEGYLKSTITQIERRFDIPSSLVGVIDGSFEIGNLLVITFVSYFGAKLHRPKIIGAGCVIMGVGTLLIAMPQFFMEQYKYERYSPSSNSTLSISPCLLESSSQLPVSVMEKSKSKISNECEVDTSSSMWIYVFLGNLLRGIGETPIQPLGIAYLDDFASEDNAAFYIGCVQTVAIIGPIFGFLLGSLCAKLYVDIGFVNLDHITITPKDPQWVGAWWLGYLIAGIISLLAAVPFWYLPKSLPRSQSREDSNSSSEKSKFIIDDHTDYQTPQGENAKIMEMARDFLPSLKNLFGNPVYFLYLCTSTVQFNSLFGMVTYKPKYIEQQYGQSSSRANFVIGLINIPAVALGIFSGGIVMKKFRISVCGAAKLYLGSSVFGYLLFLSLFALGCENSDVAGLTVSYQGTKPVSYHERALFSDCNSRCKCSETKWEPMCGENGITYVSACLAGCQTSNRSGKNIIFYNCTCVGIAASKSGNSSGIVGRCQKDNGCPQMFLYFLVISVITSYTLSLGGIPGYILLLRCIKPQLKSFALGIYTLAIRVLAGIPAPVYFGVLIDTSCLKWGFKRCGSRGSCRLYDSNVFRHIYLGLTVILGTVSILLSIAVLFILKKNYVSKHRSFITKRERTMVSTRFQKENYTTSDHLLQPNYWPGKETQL
Protocol: The competitive uptake in the presence of OATP-inhibitors or competing substrates (100 μM), diclofenac (DFC) and flufenamic acid (FFA), for OATP1C1 and naringin (NRG) for OATP1A2 was carried out as described above with HBSS buffer at pH 7.4 containing 100 μM of the studied compound. The cells were preincubated with the inhibitors for 10 min, and the incubation mixture was removed before adding the studied compound and the inhibitor to the cells. The competitive uptake (30 min) with the inhibitor was then carried out as the normal uptake described above. The concentrations of the studied compounds were analyzed by the HPLC methods described below, calculated from the spiked standard curve, and normalized with the protein concentrations.
as §2

| SMILES | Enzymatic stability, remaining percentage, mouse liver S9 [1] [%] | Enzymatic stability, remaining percentage, human liver S9 ([2]; 37 °C, mean ± SD, n = 3) [%] | Enzymatic stability, remaining percentage, mouse serum ([3]; 37 °C, mean ± SD, n = 3) [%] | Enzymatic stability, remaining percentage, mouse brain cell homogenate [4] [%] | Reduction of cellular uptake by DCF (OATP1C1) | Cellular uptake in the presence of OATP1C1 inhibitors (DCF and FFA) (OATP1C1) | inhibition at 30 min, 100 μM (OATP1C1; human, pH 7.4, with flufenamic acid (FFA) 100 μM, 100 μM flufenamic acid, read-out: Inhibition of cellular uptake by FFA) [%] | Bioconversion rate in mouse liver S9 relative to the corresponding T4 derivative [1] | half-life at 100 µM [1] [h] | Bioconversion rate in human liver relative to the corresponding T4 derivative ([2]; DIT prodrug faster than T4 prodrug) [times] | half-life at 100 µM ([2]; human, pH 7.4, liver S9 fraction, 37 °C, mean ± SD, n = 3, read-out: Enzymatic bioconversion half-life t1/2, human liver) [h] | Bioconversion rate in mouse serum relative to human plasma ([3]; higher in mouse serum) [times] | half-life at 1 mM ([3]; mouse, serum, 37 °C, mean ± SD, n = 3, read-out: Enzymatic bioconversion half-life t1/2, mouse serum) [h] | Bioconversion rate in human liver, slower than that of prodrug 6 [2] |
| --- | --- | --- | --- | --- | --- | --- | --- | --- | --- | --- | --- | --- | --- | --- |
| CC(C(=O)Oc1c(I)cc(Oc2c(I)cc(C[C@H](N)C(=O)O)cc2I)cc1I)c1cccc(C(=O)c2ccccc2)c1 (mixture of isomers) [Prodrug 2, (2S)-2-Amino-3-(4-(4-((2-(3-benzoylphenyl)propanoyl)oxy)-3,5-diiodophenoxy)-3,5-diiodophenyl)propanoic acid] | 87.59 ± 1.20 | 85.71 ± 4.27 | 98.79 ± 1.21 | 96.01 ± 3.99 | ca. 56% | reduced more effectively compared to prodrug 1 | ~42 | – | – | – | – | – | – | – |
| N[C@@H](Cc1cc(I)c(OC(=O)c2ccccc2O)c(I)c1)C(=O)O [Prodrug 3, (S)-2-Amino-3-(4-((2-hydroxybenzoyl)oxy)-3,5-diiodophenyl)propanoic acid] | 99.06 ± 0.94 | 96.84 ± 3.16 | 14.40 ± 0.60 | 95.26 ± 4.74 | – | not affected significantly | – | – | – | – | – | 5 | 1.39 ± 0.49 | – |
| N[C@@H](Cc1cc(I)c(Oc2cc(I)c(OC(=O)c3ccccc3O)c(I)c2)c(I)c1)C(=O)O [Prodrug 4, (S)-2-Amino-3-(4-(4-((2-hydroxybenzoyl)oxy)-3,5-diiodophenoxy)-3,5-diiodophenyl)propanoic acid] | 69.18 ± 0.81 | 84.00 ± 3.90 | 96.79 ± 3.21 | 91.38 ± 5.34 | – | slightly increased | – | – | – | – | – | – | – | – |
| COc1ccc2cc([C@H](C)C(=O)Oc3c(I)cc(C[C@H](N)C(=O)O)cc3I)ccc2c1 [Prodrug 5, (S)-2-Amino-3-(3,5-diiodo-4-(((S)-2-(6-methoxynaphthalen-2-yl)propanoyl)oxy)phenyl)propanoic acid] | 38.26 ± 4.49 | 69.44 ± 2.10 | 96.75 ± 3.25 | 92.98 ± 6.14 | 25% | affected by DCF but not by FFA | – | 2 times | 4.15 ± 0.761 | – | – | – | – | around 10% |

The remaining lines, values ahead:

| Enzymatic stability, remaining percentage, mouse liver S9 [1] [%] | Enzymatic stability, remaining percentage, human liver S9 ([2]; 37 °C, mean ± SD, n = 3) [%] | Enzymatic stability, remaining percentage, mouse serum ([3]; 37 °C, mean ± SD, n = 3) [%] | Enzymatic stability, remaining percentage, mouse brain cell homogenate [4] [%] | Reduction of cellular uptake by DCF (OATP1C1) | Cellular uptake in the presence of OATP1C1 inhibitors (DCF and FFA) (OATP1C1) | inhibition at 30 min, 100 μM (OATP1C1; human, pH 7.4, with flufenamic acid (FFA) 100 μM, 100 μM flufenamic acid, read-out: Inhibition of cellular uptake by FFA) [%] | Bioconversion rate in mouse liver S9 relative to the corresponding T4 derivative [1] | half-life at 100 µM [1] [h] | Bioconversion rate in human liver relative to the corresponding T4 derivative ([2]; DIT prodrug faster than T4 prodrug) [times] | half-life at 100 µM ([2]; human, pH 7.4, liver S9 fraction, 37 °C, mean ± SD, n = 3, read-out: Enzymatic bioconversion half-life t1/2, human liver) [h] | Bioconversion rate in mouse serum relative to human plasma ([3]; higher in mouse serum) [times] | half-life at 1 mM ([3]; mouse, serum, 37 °C, mean ± SD, n = 3, read-out: Enzymatic bioconversion half-life t1/2, mouse serum) [h] | Bioconversion rate in human liver, slower than that of prodrug 6 [2] | SMILES |
| --- | --- | --- | --- | --- | --- | --- | --- | --- | --- | --- | --- | --- | --- | --- |
| 25.19 ± 6.22 | 30.54 ± 3.21 | 94.89 ± 5.11 | 92.68 ± 7.32 | – | significantly reduced | – | around 3 times | 2.69 ± 0.429 | ~2.5 | 2.91 ± 0.25 | – | – | – | CC(C(=O)Oc1c(I)cc(C[C@H](N)C(=O)O)cc1I)c1ccc(-c2ccccc2)c(F)c1 (mixture of isomers) [Prodrug 7, (2S)-2-Amino-3-(4-((2-(2-fluoro-[1,1′-biphenyl]-4-yl)propanoyl)oxy)-3,5-diiodophenyl)propanoic acid] |
| 84.32 ± 0.99 | 80.17 ± 2.23 | 96.79 ± 3.21 | 97.94 ± 2.06 | – | significantly reduced | – | – | – | – | – | – | – | – | CC(C(=O)Oc1c(I)cc(Oc2c(I)cc(C[C@H](N)C(=O)O)cc2I)cc1I)c1ccc(-c2ccccc2)c(F)c1 (mixture of isomers) [Prodrug 8, (2S)-2-Amino-3-(4-(4-((2-(2-fluoro-[1,1′-biphenyl]-4-yl)propanoyl)oxy)-3,5-diiodophenoxy)-3,5-diiodophenyl)propanoic acid] |
| 78.10 ± 1.88 | 78.70 ± 3.74 | 98.33 ± 1.67 | 95.18 ± 4.82 | 75% | affected by DCF but not by FFA | – | – | – | – | – | – | – | – | COc1ccc2cc([C@H](C)C(=O)Oc3c(I)cc(Oc4c(I)cc(C[C@H](N)C(=O)O)cc4I)cc3I)ccc2c1 [Prodrug 6, (S)-2-Amino-3-(4-(3,5-diiodo-4-(((S)-2-(6-methoxynaphthalen-2-yl)propanoyl)oxy)phenoxy)-3,5-diiodophenyl)propanoic acid] |
